# From US12214076B2, “Drug delivery vehicles for atherosclerosis nanomedicine” (Northwestern University, priority 2019, dated 2025)
# Ends that are not written are not given here. Peptide text beside a SMILES is read from it. * marks the point of attachment. Palmitoyl = CCCCCCCCCCCCCCCC(=O)*
# Columns and labels:
# [1] = tested on: atherosclerotic LDLR KO mice; experiment: In vivo proof of concept: PA nanofiber localization in aortic root; parameters: species or system mouse; details: 24 h after intravenous injection, high fat diet 14 weeks, 6 mg kg-1 PA
# Description: Mouse Model of Atherosclerosis and In Vivo Proof of Concept: LDLR-KO mice were fed a high fat “Western” diet (Teklad TD.88137) starting at 4 weeks of age. This diet consisted of 20% fat, 0.2% cholesterol, and 34% high sucrose. LDLR-KO mice fed this diet typically develop severe hypercholesterolemia (>800 mg/dL) and hypertriglyceridemia (>300 mg/dL) after only 2 weeks, and by 12 weeks on the high fat diet, atherosclerotic lesions are detected in the aortic root and aortic arch. After 14 weeks on the high fat diet, mice received intravenous injections of PA nanofibers dissolved in PBS (dorsal penile vein in males) under sterile conditions. Mice were briefly anesthetized for injection with inhaled isoflurane. After injection, mice were monitored and allowed to recover from anesthesia in a heated oxygen chamber. […] PA fluorescence was assessed with the HE CY3 filter (Zeiss filter #43) using excitation and emission wavelengths of 550-575 nm and 605-670 nm, respectively. Nuclear staining was performed with DAPI (4′,6-Diamidino-2-Phenylindole, Dilactate, ThermoFisher, Chicago, IL), and assessed with the DAPI filter (Zeiss filter #49) using excitation and emission wavelengths of 365-395 and 445-450 nm, respectively. Tissue autofluorescence was assessed with the green fluorescent protein filter (Zeiss filter #38) using excitation and emission wavelengths of 470-495 and 525-550 nm, respectively. […]
# [2] = TEM characterization of PA nanofibers for diameter and length (Example 3); type: physicochemical
# Description: Samples at 1 mM in PBS were prepared for TEM by plating on copper supports covered with thin carbon foil 400-mesh that were treated with glow discharge. […] Due to the overlapping fibers, automated tools including FiberApp could not be used to analyze the nanofibers. Instead, the TEM images were analyzed manually for nanofiber diameter and length using ImageJ software. Cryogenic TEM of samples was also performed using a JEOL 1230 at 100 kV accelerating voltage and Gatan 831 CCD camera. […] Samples were prepared at 1 mM in PBS blotted once for 3 seconds before plunging into liquid ethane using a Vitrobot Mark III (FEI) vitrification robot.
# [3] = tested on: LDLR KO mice; experiment: Targeting of atherosclerosis by IV injected ApoA1 PA nanofibers (Example 3); type: in vivo, mouse; details: within 24 hours after injection, confocal, Alexa Fluor 546
# Description: (§1) Mouse model of atherosclerosis: To study atherosclerosis, the LDLR KO mouse was used. LDLR KO mice are fed a high fat “western” diet (Teklad TD.88137) starting at 4 weeks of age. This diet consists of 20% fat, 0.2% cholesterol, and 34% high sucrose. LDLR KO mice fed this diet typically develop severe hypercholesterolemia (>800 mg/dL) and hypertriglyceridemia (>300 mg/dL) after only 2 weeks. By 12 weeks on the high fat diet, atherosclerotic lesions are detected in the aortic root and aortic arch on cryosections stained with Oil Red O (Sigma). Atherosclerosis was quantified in the aortic root as a percentage of the aortic root by taking the atherosclerotic area divided by the total aortic root area. Measurements were made with ImageJ software. All protocols for the animal model and procedures in this manuscript were approved by Northwestern University's Institutional Animal Care and Use Committee.
# Injection of PA nanofibers: PA nanofibers were dissolved at 2-4 mg/mL concentration in room temperature phosphate buffered saline (PBS). After 14 weeks on the high fat diet, mice received intravenous injections of PA nanofiber dissolved in PBS (dorsal penile vein in males, retro-orbital injection in females) using a 31 G hypodermic insulin needle on a 0.3 mL syringe under sterile conditions and magnification (NIKON SMZ 645 Zoom Stereomicroscope). Mice were briefly anesthetized for injection with inhaled isoflurane. Mice were monitored and allowed to recover from anesthesia in a heated oxygen chamber.
# Dose and concentration study: To determine the optimum concentration for targeting efficacy and safety, LDLR KO mice fed the high fat diet for 14 weeks were injected with PA nanofiber at concentrations of 1 mg/mL, 2 mg/mL, and 4 mg/mL at 8 mg/kg in PBS. Similarly, to determine the optimum dose for targeting efficacy and safety, LDLR KO mice fed the high fat diet for 14 weeks were injected at PA nanofiber doses of 8 mg/kg, 6 mg/kg, 4 mg/kg, 3.3 mg/kg, and 1.7 mg/kg at 2 mg/mL in PBS. Safety, optimum dose, and concentration for targeting was assessed by survival of the animal and fluorescent pixel quantification in the aortic root, liver, lungs, kidneys, and spleen.
# (§2) Tissue processing and imaging: Mice were sacrificed and euthanized under inhaled isoflurane anesthesia by diaphragm disruption and exsanguination. Phlebotomy was performed through direct right ventricular cardiac puncture using a 1 mL syringe and 25 G needle. Perfusion was performed through left ventricular cardiac puncture with 10 mL PBS and 10 mL 10% sucrose solution. The lungs, liver, spleen, kidney, aortic root, aortic arch, and descending aorta were harvested and stored in 10% sucrose for 20 minutes. Organs and vessels were then flash-frozen in Optimal Cutting Temperature embedding medium 4583 (Tissue-Tek®) with liquid nitrogen. Frozen specimens were stored at −80° C. and cryosectioned at […]. Confocal microscopy was performed on a Nikon AIR microscope. Two sets of images were acquired with a 10× Plan Fluor NA 0.3 objective. PAs were identified through quantification of the Alexa Fluor® 546 conjugated dye with 561 nm excitation and a 600/50 nm emission filter.
# Images were acquired with spectral detection and spectrally unmixed to accurately separate green autofluorescence from the red Alexa Fluor® 546 signal. Brightfield and fluorescent microscopy were performed using a Zeiss Axio Imager.A2 microscope with AxioVision software (release 4.8.2, 06-2010). All confocal and fluorescent sections were mounted with ProGold Diamond mounting media (Sigma). Slides were stained with Oil Red O to image and quantify atherosclerosis under brightfield microscopy. The elastic laminae were identified using the green fluorescent protein (GFP) filter with an exposure time of 3500 ms under 5× magnification. Nanofibers were identified in the aortic root by presence of Alexa Fluor® 546 on the Cy3 filter under 5-10× magnification, and in the internal organs under 20× magnification. […]
# [4] = tested on: LDLR KO mice; experiment: Atherosclerosis treatment study; type: in vivo, mouse
# Description: as §1
# (§3) Blood samples were collected at the end of the treatment study for toxicology analysis. Mice were euthanized three days after their 16th treatment.
# as §2
# Images were acquired with spectral detection and spectrally unmixed to accurately separate green autofluorescence from the red Alexa Fluor® 546 signal. Brightfield and fluorescent microscopy were performed using a Zeiss Axio Imager.A2 microscope with AxioVision software (release 4.8.2, 06-2010). All confocal and fluorescent sections were mounted with ProGold Diamond mounting media (Sigma). Slides were stained with Oil Red O to image and quantify atherosclerosis under brightfield microscopy. The elastic laminae were identified using the green fluorescent protein (GFP) filter with an exposure time of 3500 ms under 5× magnification. Nanofibers were identified in the aortic root by presence of Alexa Fluor® 546 on the Cy3 filter under 5-10× magnification, and in the internal organs under 20× magnification. Fluorescent pixel quantification in the aortic root and within organs was performed with ImageJ software.
# (§4) Statistics: The effect of treatments and sex on atherosclerosis progression in mice was analyzed using one- or two-factor analysis of variance (ANOVA) followed by a post-hoc student's t-test. The toxicological effects of treatments were also analyzed using two-factor ANOVA and a post-hoc student's t-test. Toxicological effects of treatments on liver proteins AST, ALT, and ALP were further analyzed using ordinal logistic regression models of likelihood ratio tests, followed by a post-hoc Wald test
# [5] = Treatment study serum chemistry (toxicology analysis); type: in vivo, mouse; details: mouse, in vivo
# Description: as §3, §2, §4
# [6] = ROS-Ac2-26 PA cleavage assay with SIN-1; type: physicochemical
# Description: ROS-Ac2-26 and MMP-Ac2-26 PA cleavage assays: To examine ROS-mediated cleavage, 3-morpholinosydnonimine hydrochloride (SIN-1, Sigma-Aldrich or Abcam) was used. ROS-Ac2-26 PAs were reconstituted to 0.5 mM in phosphate buffer and treated with 100 μM SIN-1 for 24 hours at 37° C. For MMP2/9-mediated cleavage, human recombinant MMP2 (R&D systems, carrier-free) was used, activated with freshly prepared 1 mMp-aminophenylmercuric acetate (APMA, Sigma-Aldrich) for one hour at 37° C. The APMA disrupts the cysteine-zinc bond in MMP2 responsible for enzyme latency by liberation of the sulfhydryl group. 10% MMP-Ac2-26 PA co-assemblies were prepared at 0.5 mM in a cleavage buffer containing 50 mM tricine, 50 mM NaCl, 50 μM ZnCl2, and 10 mM CaCl2) at pH 7.4, and treated with 40 nM human recombinant MMP2 for 24 hours at 37° C. At the end of each time point, the samples were stored at −20° C., effectively stopping the cleavage reactions. Samples were analyzed at room temperature, 0.04-0.3 mg/mL with 0.1% NH4OH using a ThermoFisher Q Exactive HIF-X (ThermoFisher, Bremen, Germany) mass spectrometer coupled with a Waters Acquity H-class liquid chromatograph system. […] All measurements were recorded at a resolution setting of 120,000. […] Injection volume for all samples was […]. Data was analyzed on Xcalibur (ThermoFisher, Breman, Germany).
# [7] = read-out: dissociation constant for PEIPC; cited from earlier work
# [8] = 30 measurements from three images
# [9] = 30 measurements from three images, listed as Ser PA
# [10] = 30 measurements from three images, listed as scrambled
compound,measurement,setting,value
CCCCCCCCCCCCCCCC(=O)N[C@H](C(=O)N[C@H](C(=O)N[C@@H](C)C(=O)N[C@@H](C)C(=O)N[C@@H](CCC(=O)O)C(=O)N[C@@H](CCC(=O)O)C(=O)N[C@@H](CS)C(=O)N[C@@H](CC(=O)O)C(=O)N[C@@H](Cc1c[nH]c2ccccc12)C(=O)N[C@@H](Cc1ccccc1)C(=O)N[C@@H](C)C(=O)N[C@@H](CCCCN)C(=O)N[C@@H](CC(=O)O)C(=O)N[C@@H](Cc1ccc(O)cc1)C(=O)N[C@@H](Cc1ccccc1)C(=O)N[C@@H](CCCCN)C(=O)N[C@@H](CCCCN)C(=O)N[C@@H](C)C(=O)N[C@@H](Cc1ccccc1)C(=O)N[C@H](C(=O)N[C@@H](CCC(=O)O)C(=O)N[C@@H](CCC(=O)O)C(=O)N[C@@H](Cc1ccccc1)C(=O)N[C@@H](C)C(=O)N[C@@H](CCCCN)C(N)=O)C(C)C)C(C)C)C(C)C [Scr PA] (Palmitoyl-VVAAEECDWFAKDYFKKAFVEEFAK-NH2),localization of nanofibers to areas of atherosclerotic plaque in the aortic root,[1],does not reveal evidence of nanofiber localization
same,Diameter (nm) Median,[2]; [8],14.2 nm
same,Length (nm) Average,[2]; [8],403.8 nm
same,Diameter (nm) Average,[2]; [9],13.8 nm
same,Length (nm) Median,[2]; [9],257.6 nm
same,Diameter (nm) Average,[2]; [10],13.8±2.4 nm
same,Length (nm) Median,[2]; [10],258 nm
same,localization to areas of atherosclerosis,[3],did not localize to areas of atherosclerosis
same,atherosclerosis progression in comparison to the PBS control,"[4]; both sexes, twice per week over eight weeks, percent of atherosclerosis in the aortic root",significantly decreased
same,reduction of atherosclerosis in females in comparison to males,"[4]; mouse, in vivo",greater effects upon reducing atherosclerosis in females
same,AST levels in comparison to the PBS control,[5],no significant differences
same,Creatine,[5],0 U/L
same,Sodium,[5],138 mmol/L
same,Total Protein,[5],5.4 g/dL
same,aspartate aminotransferase (AST) in the blood in comparison to PBS,[5],significantly elevated levels of aspartate aminotransferase (AST)
C16-V2A2 (SEQ ID NO: 8)-E2-KP5K (SEQ ID NO: 10)-AMVSEFLKQAWFIENEEQEYVQTVK SEQ ID NO: 7-NH2 [ROS-Ac2-26 PA],Ac2-26 release from PA,"[6]; 100 μM SIN-1, 24 hours, 37° C.",released Ac2-26
same,Ac2-26 cleavage without SIN-1 treatment,[6]; untreated,showed the presence of cleaved Ac2-26 peptide
"DWFKAFYDKVAEKFKEAF (SEQ ID NO: 2)-NH2 (DWFKAFYDKVAEKFKEAF-NH2) [4F, 18 amino acid ApoA1 mimetic peptide]",nanofiber formation,[2],No nanofiber formation
same,localization to areas of atherosclerosis,[3],localized to areas of atherosclerosis
same,Kd,[7],1e-05 µM
native ApoA1: main protein component of high density lipoprotein (HDL) cholesterol,Kd,[7],50 µM
